Measured values taken from article PMC5702617, “Novel peptide probes to assess the tensional state of fibronectin fibers in cancer” (Nature Communications, 2017).
Residues, ends and D or L forms follow the SMILES beside them. *: point of attachment. X2 = N=c1ccc2c(-c3ccc(C(=O)NCCCCCN4C(=O)CC(*)C4=O)cc3C(=O)O)c3ccc(N)c(S(=O)(=O)O)c3oc-2c1S(=O)(=O)O

Columns and labels:
[1] = molecular target: relaxed Fn fibers (Homo sapiens, UniProt P02751); assay: Single Fn fiber binding assay, relaxed fibers; conditions: relaxed fibers (7% strain), 30 fibers from three independent experiments, Student's t test
From the text: (§1) Fn fibers were manually pulled from a concentrated droplet of Fn in PBS (95% unlabeled and 5% Cy5-labeled protein) using a sharp pipette tip and deposited onto a flexible silicone sheet (SMI, USA)[41], rinsed and rehydrated in PBS (schematically shown in Fig. 2c). For affinity measurement Fn fibers were deposited onto a pre-stretched sheet and subsequently relaxed to about a strain of 7% as defined earlier. For measurements of the strain-sensitive binding behavior, fibers were either relaxed or stretched (about 380% strain). […]
Single Fn fiber samples were imaged with an Olympus FV 1000 confocal microscope (Olympus AG, Switzerland) using a 40× water immersion objective with a numerical aperture of 0.9. […] Samples were excited with a 488 nm laser and acceptor (Alexa-546) and donor (Alexa-488) signal was detected in two PMTs using a 12 nm detection bandwidth for donor (514–526 nm) and acceptor (566–578 nm)[25]. […]
Images were analyzed using Fiji-ImageJ and Matlab (MathWorks, Switzerland). For the Fn fiber affinity study, the pixel-wise ratio of FnBPA5-Alexa- 488 signal intensity divided by Fn-Cy5 intensity was calculated for each fiber, if intensities were above a cut-off threshold and below saturation. […] Correction factors for donor bleed through and direct activation of the acceptor used for the analysis were experimentally assessed as shown in Supplementary Fig. 5b, c. […]

[2] = molecular target: relaxed and stretched Fn fibers (Homo sapiens, UniProt P02751); assay: Fn fiber stretch assay, relaxed vs stretched fibers; format: binding; conditions: relaxed (7% strain) vs stretched (380% strain) fibers, three independent experiments, p < 0.001
From the text: as §1
Images were analyzed using Fiji-ImageJ and Matlab (MathWorks, Switzerland). For the Fn fiber affinity study, the pixel-wise ratio of FnBPA5-Alexa- 488 signal intensity divided by Fn-Cy5 intensity was calculated for each fiber, if intensities were above a cut-off threshold and below saturation. […] Correction factors for donor bleed through and direct activation of the acceptor used for the analysis were experimentally assessed as shown in Supplementary Fig. 5b, c. […] FRET acceptor channel was corrected for donor bleed through which was measured to be ~20% of the acceptor intensity (Supplementary Fig. 5b). Further analysis such as FRET-Fn-FnBPA5/Fn ratio quantifications were carried out in MatLab.

[3] = molecular target: fibrillar Fn in human dermal fibroblast ECM (Homo sapiens, UniProt P02751); assay: Binding to ECM assembled by human dermal fibroblasts; format: cell-based; conditions: 5 μg ml−1 peptide, 1 h prior to fixation, confocal microscopy
Experimental: Normal human dermal fibroblasts (PromoCell, Vitaris AG, Switzerland) were cultured in alpha minimum essential medium (α-MEM) with 10% fetal bovine serum from BioWest (Nuaillé, France), and split before reaching confluence. Cells were seeded onto Fn-coated 8-well chambered cover glasses (Nunc^TM Lab-Tek^TM Chambered Coverglass, Thermo Fisher Scientific, Reinach, Switzerland) at a density of 50 × 10^3 cells per cm^2 and allowed to attach to the surface before medium exchange to medium containing 50 μg ml^−1 Fn. Dependent on the experiment, a fraction of only 10% of exogenous Fn was double-labeled for FRET analysis to prevent intermolecular FRET. Cells in Figs. 2h and 3 were cultured for 48 h. […] After fixation with a 4% paraformaldehyde solution in PBS, the samples shown in Fig. 3 were stained using DAPI (Invitrogen^TM, Thermo Fisher Scientific, Switzerland) and were further analyzed by means of confocal microscopy, whereas samples shown in Fig. 2h were blocked by 4% donkey serum (Abcam, Switzerland) for 1 h at room temperature and fibronectin was stained using a rabbit polyclonal anti-fibronectin antibody (1:50 diluted, ab23750, Abcam, Switzerland). Samples shown in Fig. 2h were then incubated for 1 h with a donkey anti-rabbit Alexa-546 secondary antibody (Invitrogen^TM, Thermo Fisher Scientific, Switzerland).

Sequence of relaxed Fn fibers (P02751 32-2477): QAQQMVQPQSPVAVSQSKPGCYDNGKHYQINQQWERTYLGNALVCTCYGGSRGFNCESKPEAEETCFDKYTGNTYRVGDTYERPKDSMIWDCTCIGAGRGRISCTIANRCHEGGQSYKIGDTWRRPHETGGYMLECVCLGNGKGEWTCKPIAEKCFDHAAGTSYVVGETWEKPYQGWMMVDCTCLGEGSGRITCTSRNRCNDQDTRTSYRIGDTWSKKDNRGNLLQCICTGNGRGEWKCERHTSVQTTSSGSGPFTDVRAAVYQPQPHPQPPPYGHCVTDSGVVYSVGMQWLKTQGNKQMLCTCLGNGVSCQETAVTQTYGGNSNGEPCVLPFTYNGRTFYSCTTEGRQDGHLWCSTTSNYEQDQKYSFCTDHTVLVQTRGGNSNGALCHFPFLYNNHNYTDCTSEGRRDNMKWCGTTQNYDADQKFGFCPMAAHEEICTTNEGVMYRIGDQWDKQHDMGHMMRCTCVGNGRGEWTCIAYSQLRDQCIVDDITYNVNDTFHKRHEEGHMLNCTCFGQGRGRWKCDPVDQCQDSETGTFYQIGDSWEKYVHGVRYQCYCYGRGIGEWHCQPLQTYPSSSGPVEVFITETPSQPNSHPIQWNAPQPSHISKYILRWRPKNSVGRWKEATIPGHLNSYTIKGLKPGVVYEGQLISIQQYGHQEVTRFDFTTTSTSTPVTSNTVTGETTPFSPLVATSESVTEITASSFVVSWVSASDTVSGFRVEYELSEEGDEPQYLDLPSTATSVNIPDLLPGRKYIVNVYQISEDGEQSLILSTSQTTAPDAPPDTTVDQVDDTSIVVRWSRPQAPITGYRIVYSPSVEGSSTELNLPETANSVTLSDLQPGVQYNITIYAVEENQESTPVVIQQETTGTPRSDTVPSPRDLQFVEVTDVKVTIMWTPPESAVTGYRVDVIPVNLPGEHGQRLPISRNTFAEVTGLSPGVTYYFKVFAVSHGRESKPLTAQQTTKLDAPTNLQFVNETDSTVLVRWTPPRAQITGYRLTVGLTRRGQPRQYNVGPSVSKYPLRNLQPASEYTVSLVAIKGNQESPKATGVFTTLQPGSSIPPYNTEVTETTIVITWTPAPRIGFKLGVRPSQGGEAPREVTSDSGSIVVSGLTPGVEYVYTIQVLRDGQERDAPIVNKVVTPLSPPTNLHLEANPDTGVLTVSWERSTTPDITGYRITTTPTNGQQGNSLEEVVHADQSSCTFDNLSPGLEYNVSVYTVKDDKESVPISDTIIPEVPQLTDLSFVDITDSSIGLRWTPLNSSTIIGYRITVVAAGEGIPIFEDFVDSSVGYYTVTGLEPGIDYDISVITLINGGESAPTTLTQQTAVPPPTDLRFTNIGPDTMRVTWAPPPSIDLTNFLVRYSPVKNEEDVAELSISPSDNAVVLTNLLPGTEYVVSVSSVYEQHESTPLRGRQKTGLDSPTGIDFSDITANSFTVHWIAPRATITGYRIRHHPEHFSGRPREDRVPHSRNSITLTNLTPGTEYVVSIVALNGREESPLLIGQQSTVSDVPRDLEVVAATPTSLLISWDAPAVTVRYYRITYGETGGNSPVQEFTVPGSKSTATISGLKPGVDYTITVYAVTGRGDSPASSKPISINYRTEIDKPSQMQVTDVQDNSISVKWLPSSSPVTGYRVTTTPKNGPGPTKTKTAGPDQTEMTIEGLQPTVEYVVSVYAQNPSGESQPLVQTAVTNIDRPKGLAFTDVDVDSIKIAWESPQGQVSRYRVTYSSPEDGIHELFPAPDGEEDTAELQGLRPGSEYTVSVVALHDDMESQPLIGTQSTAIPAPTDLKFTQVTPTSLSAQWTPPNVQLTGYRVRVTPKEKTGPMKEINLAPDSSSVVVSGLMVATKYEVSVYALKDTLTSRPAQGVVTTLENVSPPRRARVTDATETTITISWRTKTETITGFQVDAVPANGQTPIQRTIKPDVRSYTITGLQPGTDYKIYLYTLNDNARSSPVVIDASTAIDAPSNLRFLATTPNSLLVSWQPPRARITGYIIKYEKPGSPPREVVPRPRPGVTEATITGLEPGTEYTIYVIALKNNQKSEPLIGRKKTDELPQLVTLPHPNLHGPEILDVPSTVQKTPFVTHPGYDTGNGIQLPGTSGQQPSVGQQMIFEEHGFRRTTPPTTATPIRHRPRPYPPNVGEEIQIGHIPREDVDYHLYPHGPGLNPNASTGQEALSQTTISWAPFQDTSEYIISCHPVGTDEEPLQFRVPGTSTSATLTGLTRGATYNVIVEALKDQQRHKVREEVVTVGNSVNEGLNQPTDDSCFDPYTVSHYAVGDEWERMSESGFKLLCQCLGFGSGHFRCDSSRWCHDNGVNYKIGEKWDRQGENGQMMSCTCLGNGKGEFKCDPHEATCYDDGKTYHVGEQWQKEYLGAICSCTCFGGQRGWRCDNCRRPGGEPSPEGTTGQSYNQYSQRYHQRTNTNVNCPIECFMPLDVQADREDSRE
Sequence of fibrillar Fn in human dermal fibroblast ECM (P02751 32-273 limits assumed): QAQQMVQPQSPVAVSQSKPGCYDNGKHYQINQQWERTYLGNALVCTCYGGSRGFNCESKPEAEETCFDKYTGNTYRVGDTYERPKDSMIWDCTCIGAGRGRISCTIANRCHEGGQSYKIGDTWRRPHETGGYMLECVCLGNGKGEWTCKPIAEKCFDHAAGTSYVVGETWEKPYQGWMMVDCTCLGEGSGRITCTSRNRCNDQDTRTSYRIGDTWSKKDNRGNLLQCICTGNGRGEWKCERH
Sequence of relaxed and stretched Fn fibers (P02751 32-2477): as the sequence (P02751 32-2477) above

In the case of `CC[C@H](C)[C@H](NC(=O)CNC(=O)[C@H](CCCCN)NC(=O)[C@@H](NC(=O)[C@H](CO)NC(=O)[C@H](CCC(=O)O)NC(=O)[C@H](CCC(=O)O)NC(=O)[C@H](CC(=O)O)NC(=O)[C@H](Cc1ccccc1)NC(=O)[C@H](CCC(=O)O)NC(=O)[C@@H](NC(=O)[C@H](CC(C)C)NC(=O)[C@H](CC(N)=O)NC(=O)[C@H](CO)NC(=O)[C@H](CCC(=O)O)NC(=O)[C@@H](NC(=O)[C@@H](NC(=O)[C@@H](NC(=O)[C@H](CCC(N)=O)NC(=O)CNC(=O)CNC(=O)CNC(=O)[C@@H](N)CSC1CC(=O)N(CCCCCNC(=O)c2ccc(-c3c4ccc(=N)c(S(=O)(=O)O)c-4oc4c(S(=O)(=O)O)c(N)ccc34)c(C(=O)O)c2)C1=O)C(C)C)[C@@H](C)O)[C@@H](C)O)C(C)C)[C@@H](C)O)C(=O)N[C@H](C(=O)N[C@H](C(=O)NCC(=O)N[C@@H](C)C(=O)N[C@H](C(=O)N[C@@H](CO)C(=O)N[C@@H](CC(=O)O)C(=O)N[C@@H](Cc1c[nH]cn1)C(=O)N[C@H](C(=O)N[C@H](C(=O)N[C@H](C(=O)N[C@@H](CCC(=O)O)C(=O)N[C@@H](CC(=O)O)C(=O)N[C@H](C(=O)N[C@@H](CCCCN)C(=O)O)[C@@H](C)O)C(C)C)[C@@H](C)O)[C@@H](C)O)C(C)C)[C@@H](C)O)C(C)C` (stereo partly shown) [FnBPA5-Alexa488] (H-C(X2)GGGQVTTESNLVEFDEESTKGIVTGAVSDHTTVEDTK-OH; N-terminus and C-terminus assumed), the “binding to single relaxed Fn fibers (words)” value [1] is reported as “significant higher binding”, the “binding to single relaxed Fn fibers (words)” value ([1]; listed as FnBPA5-Alexa-488) is reported as “significantly higher binding to Fn fibers than the scrambled control peptide” and the “strain-dependent binding, FnBPA5/Fn ratio” value [2] is reported as “significantly higher peptide binding of FnBPA5 to relaxed Fn fibers compared to stretched fibers”. The “binding to fibroblast-assembled ECM” value [3] was “Specific binding to fibrillar Fn”.
